Experimental data: the NIST ThermoML archive (doi:10.1021/je300405a)
± gives the expanded uncertainty stated by the source.

Details: Liquid; for speed of sound: Pulse-echo method; for mass density: Vibrating tube method

`CCCCCCCCCC(=O)OCC` [ethyl decanoate] showed a speed of sound (283.15 K, 101.3 kPa) of 1352.7 ± 5.6 m/s, a speed of sound (283.15 K, 10000 kPa) of 1398.5 ± 5.8 m/s and a speed of sound (283.15 K, 20000 kPa) of 1442.3 ± 6 m/s. The speed of sound (283.15 K, 30000 kPa) was 1483.7 ± 6.1 m/s, the speed of sound (283.15 K, 40000 kPa) was 1522.5 ± 6.3 m/s and the speed of sound (283.15 K, 50000 kPa) was 1558.3 ± 6.4 m/s. For the same molecule, the speed of sound (283.15 K, 60000 kPa) was 1593.9 ± 6.6 m/s, the speed of sound (283.15 K, 70000 kPa) was 1627 ± 6.7 m/s and the speed of sound (283.15 K, 80000 kPa) was 1658.8 ± 6.9 m/s. It also gave a speed of sound (283.15 K, 90000 kPa) of 1689.9 ± 7 m/s, a speed of sound (283.15 K, 100000 kPa) of 1720.7 ± 10 m/s and a speed of sound (283.15 K, 110000 kPa) of 1753.7 ± 11 m/s. It also gave a speed of sound (283.15 K, 120000 kPa) of 1781.4 ± 11 m/s, a speed of sound (283.15 K, 130000 kPa) of 1808.5 ± 11 m/s and a speed of sound (283.15 K, 140000 kPa) of 1834.6 ± 11 m/s. It also gave a speed of sound (283.15 K, 150000 kPa) of 1860.3 ± 11 m/s, a speed of sound (283.15 K, 170000 kPa) of 1908.7 ± 12 m/s and a speed of sound (283.15 K, 190000 kPa) of 1951.8 ± 12 m/s. For the same molecule, the speed of sound (283.15 K, 210000 kPa) was 1998 ± 12 m/s, the mass density (293.15 K, 101.3 kPa) was 863.82 ± 1 kg/m3 and the mass density (293.15 K, 10000 kPa) was 870.79 ± 1 kg/m3. The mass density (293.15 K, 20000 kPa) was 877.08 ± 1.1 kg/m3, the mass density (293.15 K, 30000 kPa) was 882.99 ± 1.1 kg/m3 and the mass density (293.15 K, 40000 kPa) was 888.58 ± 1.1 kg/m3. For the same molecule, the mass density (293.15 K, 50000 kPa) was 893.79 ± 1.1 kg/m3, the mass density (293.15 K, 60000 kPa) was 898.83 ± 1.1 kg/m3 and the mass density (293.15 K, 70000 kPa) was 903.51 ± 1.1 kg/m3. For the same molecule, the mass density (293.15 K, 80000 kPa) was 907.69 ± 1.1 kg/m3, the mass density (293.15 K, 90000 kPa) was 912.24 ± 1.1 kg/m3 and the mass density (293.15 K, 100000 kPa) was 916.37 ± 1.1 kg/m3. It also gave a speed of sound (303.15 K, 101.3 kPa) of 1275 ± 5.3 m/s, a mass density (303.15 K, 101.3 kPa) of 855.53 ± 1 kg/m3 and a speed of sound (303.15 K, 10000 kPa) of 1325.7 ± 5.5 m/s. For the same molecule, the mass density (303.15 K, 10000 kPa) was 863.17 ± 1 kg/m3, the speed of sound (303.15 K, 20000 kPa) was 1373.2 ± 5.7 m/s and the mass density (303.15 K, 20000 kPa) was 869.73 ± 1.1 kg/m3. The speed of sound (303.15 K, 30000 kPa) was 1416.8 ± 5.9 m/s, the mass density (303.15 K, 30000 kPa) was 875.81 ± 1.1 kg/m3 and the speed of sound (303.15 K, 40000 kPa) was 1458.3 ± 6.1 m/s. The mass density (303.15 K, 40000 kPa) was 881.53 ± 1.1 kg/m3, the speed of sound (303.15 K, 50000 kPa) was 1498 ± 6.2 m/s and the mass density (303.15 K, 50000 kPa) was 887 ± 1.1 kg/m3. The speed of sound (303.15 K, 60000 kPa) was 1535.5 ± 6.4 m/s, the mass density (303.15 K, 60000 kPa) was 892.12 ± 1.1 kg/m3 and the speed of sound (303.15 K, 70000 kPa) was 1569.9 ± 6.5 m/s. For the same molecule, the mass density (303.15 K, 70000 kPa) was 897.09 ± 1.1 kg/m3, the speed of sound (303.15 K, 80000 kPa) was 1603.2 ± 6.7 m/s and the mass density (303.15 K, 80000 kPa) was 901.73 ± 1.1 kg/m3. The speed of sound (303.15 K, 90000 kPa) was 1635.3 ± 6.8 m/s, the mass density (303.15 K, 90000 kPa) was 906.27 ± 1.1 kg/m3 and the speed of sound (303.15 K, 100000 kPa) was 1666.2 ± 10 m/s. It also gave a mass density (303.15 K, 100000 kPa) of 910.56 ± 1.1 kg/m3, a speed of sound (303.15 K, 110000 kPa) of 1696.2 ± 10 m/s and a speed of sound (303.15 K, 120000 kPa) of 1724.8 ± 10 m/s. It also gave a speed of sound (303.15 K, 130000 kPa) of 1752.9 ± 11 m/s, a speed of sound (303.15 K, 140000 kPa) of 1779.2 ± 11 m/s and a speed of sound (303.15 K, 150000 kPa) of 1805.4 ± 11 m/s. It also gave a speed of sound (303.15 K, 170000 kPa) of 1854.6 ± 11 m/s, a speed of sound (303.15 K, 190000 kPa) of 1902.4 ± 12 m/s and a speed of sound (303.15 K, 210000 kPa) of 1947.7 ± 12 m/s. For the same molecule, the mass density (313.15 K, 101.3 kPa) was 847.99 ± 1 kg/m3, the mass density (313.15 K, 10000 kPa) was 855.19 ± 1.1 kg/m3 and the mass density (313.15 K, 20000 kPa) was 862 ± 1.1 kg/m3. It also gave a mass density (313.15 K, 30000 kPa) of 868.5 ± 1.1 kg/m3, a mass density (313.15 K, 40000 kPa) of 874.4 ± 1.1 kg/m3 and a mass density (313.15 K, 50000 kPa) of 880 ± 1.1 kg/m3. It also gave a mass density (313.15 K, 60000 kPa) of 885.4 ± 1.1 kg/m3, a mass density (313.15 K, 70000 kPa) of 890.5 ± 1.1 kg/m3 and a mass density (313.15 K, 80000 kPa) of 895.4 ± 1.1 kg/m3. It also gave a mass density (313.15 K, 90000 kPa) of 900 ± 1.1 kg/m3, a mass density (313.15 K, 100000 kPa) of 904.4 ± 1.1 kg/m3 and a speed of sound (323.15 K, 101.3 kPa) of 1203.1 ± 5 m/s. It also gave a mass density (323.15 K, 101.3 kPa) of 839.75 ± 1 kg/m3, a speed of sound (323.15 K, 10000 kPa) of 1258.2 ± 5.3 m/s and a mass density (323.15 K, 10000 kPa) of 847.49 ± 1.1 kg/m3. It also gave a speed of sound (323.15 K, 20000 kPa) of 1309.5 ± 5.5 m/s, a mass density (323.15 K, 20000 kPa) of 854.78 ± 1.1 kg/m3 and a speed of sound (323.15 K, 30000 kPa) of 1355.9 ± 5.6 m/s. The mass density (323.15 K, 30000 kPa) was 861.46 ± 1.1 kg/m3, the speed of sound (323.15 K, 40000 kPa) was 1399.1 ± 5.8 m/s and the mass density (323.15 K, 40000 kPa) was 867.52 ± 1.1 kg/m3. For the same molecule, the speed of sound (323.15 K, 50000 kPa) was 1439.4 ± 6 m/s, the mass density (323.15 K, 50000 kPa) was 873.23 ± 1.1 kg/m3 and the speed of sound (323.15 K, 60000 kPa) was 1478.4 ± 6.1 m/s. The mass density (323.15 K, 60000 kPa) was 879.07 ± 1.1 kg/m3, the speed of sound (323.15 K, 70000 kPa) was 1515.1 ± 6.3 m/s and the mass density (323.15 K, 70000 kPa) was 884.28 ± 1.1 kg/m3. For the same molecule, the speed of sound (323.15 K, 80000 kPa) was 1550.3 ± 6.4 m/s, the mass density (323.15 K, 80000 kPa) was 889.28 ± 1.1 kg/m3 and the speed of sound (323.15 K, 90000 kPa) was 1583.7 ± 6.6 m/s. The mass density (323.15 K, 90000 kPa) was 894.05 ± 1.1 kg/m3, the speed of sound (323.15 K, 100000 kPa) was 1615.7 ± 9.9 m/s and the mass density (323.15 K, 100000 kPa) was 898.41 ± 1.2 kg/m3. The speed of sound (323.15 K, 110000 kPa) was 1645.8 ± 10 m/s, the speed of sound (323.15 K, 120000 kPa) was 1676.7 ± 10 m/s and the speed of sound (323.15 K, 130000 kPa) was 1705.7 ± 10 m/s. It also gave a speed of sound (323.15 K, 140000 kPa) of 1733.7 ± 11 m/s, a speed of sound (323.15 K, 150000 kPa) of 1760.3 ± 11 m/s and a speed of sound (323.15 K, 170000 kPa) of 1811.6 ± 11 m/s. For the same molecule, the speed of sound (323.15 K, 190000 kPa) was 1861.2 ± 11 m/s, the speed of sound (323.15 K, 210000 kPa) was 1909.8 ± 12 m/s and the mass density (333.15 K, 101.3 kPa) was 831.19 ± 1 kg/m3. It also gave a mass density (333.15 K, 10000 kPa) of 839.38 ± 1.1 kg/m3, a mass density (333.15 K, 20000 kPa) of 846.93 ± 1.1 kg/m3 and a mass density (333.15 K, 30000 kPa) of 853.95 ± 1.1 kg/m3. For the same molecule, the mass density (333.15 K, 40000 kPa) was 860.39 ± 1.1 kg/m3, the mass density (333.15 K, 50000 kPa) was 866.43 ± 1.1 kg/m3 and the mass density (333.15 K, 60000 kPa) was 872.17 ± 1.1 kg/m3. It also gave a mass density (333.15 K, 70000 kPa) of 877.53 ± 1.1 kg/m3, a mass density (333.15 K, 80000 kPa) of 882.56 ± 1.1 kg/m3 and a mass density (333.15 K, 90000 kPa) of 887.46 ± 1.2 kg/m3. For the same molecule, the mass density (333.15 K, 100000 kPa) was 892.18 ± 1.2 kg/m3, the speed of sound (343.15 K, 101.3 kPa) was 1133.3 ± 4.8 m/s and the mass density (343.15 K, 101.3 kPa) was 822.9 ± 1 kg/m3. The speed of sound (343.15 K, 10000 kPa) was 1192.8 ± 5 m/s, the mass density (343.15 K, 10000 kPa) was 831.45 ± 1.1 kg/m3 and the speed of sound (343.15 K, 20000 kPa) was 1247 ± 5.2 m/s. The mass density (343.15 K, 20000 kPa) was 839.59 ± 1.1 kg/m3, the speed of sound (343.15 K, 30000 kPa) was 1297.2 ± 5.4 m/s and the mass density (343.15 K, 30000 kPa) was 846.94 ± 1.1 kg/m3. It also gave a speed of sound (343.15 K, 40000 kPa) of 1343 ± 5.6 m/s, a mass density (343.15 K, 40000 kPa) of 853.75 ± 1.1 kg/m3 and a speed of sound (343.15 K, 50000 kPa) of 1385.7 ± 5.8 m/s. The mass density (343.15 K, 50000 kPa) was 860.03 ± 1.1 kg/m3, the speed of sound (343.15 K, 60000 kPa) was 1425.7 ± 5.9 m/s and the mass density (343.15 K, 60000 kPa) was 865.88 ± 1.1 kg/m3. The speed of sound (343.15 K, 70000 kPa) was 1463.9 ± 6.1 m/s.
